PubChem BioAssay (NCI)
Several values for one entry are separate records, joined by “and”; a condition that tells them apart may be missing. Identical values can stand only once.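 Where inhibition never reached the appropriate level, the endpoint shown equals the highest concentration tested. Otherwise, values were interpolated linearly from a five-concentration, 48-hour dose response in 96-well plates. GI50 = concentration required for 50% inhibition of growth. The concentration for full growth arrest is given as TGI.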

What was measured:
Test in all cases: NCI anticancer screen, dose series, 48 h
[1] = test system: NCI-H226 lung
[2] = test system: UACC-62 melanoma
[3] = test system: HCC-2998 colon
[4] = test system: SR leukemia
[5] = test system: TK-10 renal
[6] = test system: HCT-116 colon
[7] = test system: KM12 colon
[8] = test system: HOP-92 NSCLC
[9] = test system: A549 NSCLC
[10] = test system: SF-268 CNS

| Structure (SMILES) | GI50 [1] | TGI [1] | GI50 [2] | TGI [2] | GI50 [3] | TGI [3] | GI50 [4] | TGI [4] | GI50 [5] | TGI [5] | GI50 [6] | TGI [6] | GI50 [7] | TGI [7] | GI50 [8] | TGI [8] | GI50 [9] | TGI [9] | GI50 [10] | TGI [10] |
| --- | --- | --- | --- | --- | --- | --- | --- | --- | --- | --- | --- | --- | --- | --- | --- | --- | --- | --- | --- | --- |
| Cc1c(C(N)=O)sc2nc(C)n(/N=c3\scc(-c4ccccc4)n3Cc3ccccc3)c(=O)c12 | 3.72 µM | 67.9 µM | 4.26 µM | 83.2 µM | 3.05 µM | > 100 µM | 5.74 µM | > 100 µM | 3.78 µM | > 100 µM | 2.13 µM | 10.3 µM | 3.37 µM | > 100 µM | 1.34 µM | 5.33 µM | 3.79 µM | > 100 µM | 4 µM | > 100 µM |
| CC(=O)Nc1ccc(/C=c2\sc3nnc(-c4cccnc4)n3c2=O)cc1 |  | > 100 µM |  | 27.7 µM |  | 35.8 µM |  | 46.7 µM |  | 57.3 µM |  | 28.9 µM |  | 31 µM |  | 44.2 µM |  | > 100 µM |  | 60 µM |
| CSc1nc(SC)c2c(C)cn(COCCOC(=O)c3ccccc3)c2n1 |  | > 100 µM |  | > 100 µM |  | > 100 µM |  | > 100 µM |  | > 100 µM |  | > 100 µM |  | > 100 µM |  | 99.7 µM |  | > 100 µM |  | > 100 µM |
| Cn1c(I)c(C#C[Si](C)(C)C)c(=O)[nH]c1=O | 12.7 µM | 25.3 µM | 6.4 µM | 19.8 µM | 2.32 µM | 4.59 µM | 3.37 µM | 5.82 µM | 7.93 µM | 22.8 µM | 1.89 µM | 3.57 µM | 16.8 µM | 32.4 µM | 1.08 µM | 2.53 µM | 21.5 µM | 38.1 µM | 2.79 µM | 8.85 µM |
| C(=N\Nc1ccc2ccccc2n1)/c1ccccn1 | 0.508 µM | 19 µM | 0.877 µM | 5.54 µM | 0.307 µM | 1.14 µM | 0.328 µM |  | 0.375 µM | > 100 µM | 0.368 µM | 13.9 µM | 0.458 µM | 16.2 µM | 0.816 µM | 32.8 µM | 0.563 µM | > 100 µM | 0.41 µM | > 33.5 µM |
| COc1ccc2c(c1)/C(=N/OC(C)=O)c1c-2c(OC)nc2ccccc12 | > 100 µM | > 100 µM | > 100 µM | > 100 µM | > 100 µM | > 100 µM | 21.6 µM | > 100 µM | 79.1 µM | > 100 µM | > 100 µM | > 100 µM | > 100 µM | > 100 µM | 22.5 µM | 82.3 µM | > 100 µM | > 100 µM | > 100 µM | > 100 µM |
| Cc1ccc(-c2nc3sc(C)cn3c2/C=C2\C(=O)Nc3ccc(Cl)cc32)cc1 | 22.9 µM | > 100 µM | 13.3 µM | 27.7 µM | 15.1 µM | 31.1 µM | 10.8 µM | 36.7 µM | 9.28 µM | 24.7 µM | 12.2 µM | 24.7 µM | 20.6 µM | 48.5 µM | 7.66 µM | 25.1 µM | 14.1 µM | 27.8 µM | 17.8 µM | 35.5 µM |
| CSc1ccc(C(=O)/C=C/c2ccc(Cl)cc2Cl)cc1 | 26 µM | 82.9 µM | 24.3 µM | 78.5 µM | 17.2 µM | 35.8 µM | 0.351 µM | 0.909 µM | 20.9 µM | 52.9 µM | 3.91 µM | 14.9 µM | 22.2 µM | 51.8 µM | 40.2 µM | > 100 µM | 17.7 µM | 40.5 µM | 20.8 µM | 48.9 µM |
| COc1cc(C(=O)n2nc(N)c3c(C)cc(C)nc32)cc(OC)c1OC | > 100 µM | > 100 µM | 54.1 µM | > 100 µM | > 100 µM | > 100 µM | 0.784 µM | > 100 µM | > 100 µM | > 100 µM | 42 µM | > 100 µM | 10.4 µM | > 100 µM | > 100 µM | > 100 µM | 41.5 µM | > 100 µM | > 100 µM | > 100 µM |
| COc1ccc2c(c1)nnc1c3cccnc3[nH]c21 | 2.62 µM and 7.87 µM | 11.1 µM and 65.3 µM | 0.908 µM and 2.11 µM | 6.93 µM and 12.6 µM | 8.23 µM and 10 µM | 18.4 µM and 23.8 µM | 0.0313 µM and 0.0336 µM |  | 4.52 µM | 22.6 µM | 0.209 µM and 0.146 µM |  | 1.22 µM and 1.92 µM | 5.89 µM and 13.4 µM | 0.0817 µM and 0.131 µM | 1.11 µM and 3.26 µM | 7.9 µM and 3.53 µM | 42.5 µM and 15.4 µM | 0.733 µM and 0.365 µM | 4.7 µM and 5.65 µM |
| COc1cc(C2NC(=O)C(C#N)=C(Nc3cccc(C)c3)S2)ccc1O (configuration not stated) | > 100 µM | > 100 µM | > 100 µM | > 100 µM | > 100 µM | > 100 µM | > 100 µM | > 100 µM | > 100 µM | > 100 µM | > 100 µM | > 100 µM | > 100 µM | > 100 µM | > 100 µM | > 100 µM | > 100 µM | > 100 µM | > 100 µM | > 100 µM |
| CC(C)(C)[Si](C)(C)OC1[C@@H](COC(=O)NC(=O)CCl)O[C@@H](n2cnc3c(N)ncnc32)[C@H]1O[Si](C)(C)C(C)(C)C (some centres not stated) | 1.13 µM | 2.3 µM | 6.14 µM | 12.7 µM | 5.44 µM | 12.6 µM | 0.357 µM | 1.31 µM | 9.14 µM | 16.1 µM | 1.53 µM | 5.15 µM | 2.55 µM | 6.48 µM | 1.76 µM | 9.24 µM | 4.94 µM | 11.9 µM | 1.93 µM | 5.23 µM |
| COc1ccc(-c2[nH]ncc2Nc2cc(OC)c(OC)c(OC)c2)cc1 | 29.1 µM | > 100 µM | 0.704 µM | 69.8 µM | 2.17 µM | 37.9 µM | 0.36 µM | > 100 µM | > 32 µM | 96.9 µM | 1.04 µM | > 43.2 µM | 0.63 µM | 22.7 µM | > 62.9 µM | > 100 µM | 3.39 µM | > 100 µM | 6.83 µM | > 100 µM |
